# According to US8715751B2, “Artemisinins in the clinical and veterinary management of kinetoplastid infections” (The United States of America as Represented by the …, priority 2006, dated 2014):
# “And” between values parts separate entries of the source, which are not always exact repeats. Equal entries are not always repeated. Where two headings read alike, the source gives them in different places.
# Tests used:
# [1] = tested on: Leishmania major ATCC 50122 amastigotes; test: In vitro amastigote/macrophage culture drug screening; type: cell-based; conditions: for effectiveness ranking of the compounds in the screen: 2.0 μM initial screen
# Experimental: Preliminary drug screening (in vitro amastigote/macrophage culture) of artemisinin and artelinic acid compounds.
# The four compounds were dissolved in the respective solvents as indicated in the table below (Table 1) and were tested against Leishmania major ATCC 50122 amastigotes in vitro in a mouse macrophage system. A positive (Pentostam) and negative (culture medium) controls were set for each plate. Compounds were tested at 2.0 μM in a total volume of 2-0 mls. Drug was added to well every 4 hours×1, 2 and 3, and results shown in (Table 2) below.
# Because of the high potency of Artelinic acid relative to the other compounds, the experiments were repeated with different doses of Artelinic acid alone.
# [2] = tested on: HeLa S3 cells; test: Cytotoxicity assay in vitro (MTT); type: cell-based, human; conditions: 1 μg/mL
# Experimental: An axenic culture of human carcinoma HeLa S3 cell line was established in Dulbecco's Modified Eagle's Medium (D-MEM, Sigma) supplemented with 4500 mg glucose/L, L-glutamine, NaHCO3, and pyridoxine HCl, to which 10% heat-inactivated (56° C., 40 min) fetal bovine serum (FBS, MultiSer) was added. Plant chromatographic fractions, which have shown potent trypanocidal activity in vitro, were selected for cytotoxicity assay. Previously dissolved in neat DMSO (Wako-for biochemical assay), an aliquot of 10 μL of each test sample was diluted in 490 μL of the cell culture medium with the intent of decreasing the DMSO concentration to 2% in the medium. HeLa S3 cells maintained in culture dish (Sumilon) were washed with Dulbecco's phosphate saline buffer (-) [DPBS (-), Nissui Pharmaceutical Co., Ltd] after syphonating the culture medium. Adherent cells were released from their dish bottom substrate by adding trypsin (Nacalai) and gently tapping with hand on the round lateral side of the dish. […] After shaking ([…]) for 3-5 min, the absorbance in each well was measured at 540 nm in a microtiter plate reader (ImmunoMini NJ-2300). The percentage of cytotoxicity (growth inhibition level) was calculated as (A-B)/A×100, where A is the mean optical density of negative control wells and B is the mean optical density of test sample wells.
# [3] = tested on: Trypanosoma brucei brucei; test: In vitro trypanocidal assay (microscopic viability, bloodstream forms); type: cell-based; conditions: 1 μg/mL, 24-hr incubation, read-out: growth inhibition against T. b. brucei
# Experimental: Culture suspension of Trypanosoma brucei brucei (T. b. brucei) was obtained from Research Institute for Microbial Diseases (Osaka University, Japan). Trypanosomes were subcultured in appropriate medium (see 5.1.2) as frequently as needed to avoid overgrowth, and maintained in culture flasks at 37° C. in a humidified, 5% CO2 atmosphere incubator. In addition, parasite culture stabilates were prepared by suspending trypanosomes centrifugation (1500 rpm, room temperature, 3 min) pellet in 1 mL of a mixture of […] (v/v) trypanosome dilution buffer and 33% (v/v) glycerol. The whole volume was transferred into cryotubes and stored at −80° C. until further needed. […]
# All fractions obtained stepwise in the course of the separation process of the plant crude extracts were assessed for their in vitro activity against T. b. brucei. […] Trypanosomes were harvested at late exponential growth level, counted with a hemocytometer (Erma Tokyo 7059), and resuspended by appropriate dilution in culture medium for achieving a final density of 1×10^4 cells/mL. […] After successively 24, 48, and 72 hr-incubations, parasites viability was determined by observing directly inside the wells of the microculture plate with an optical microscope (Injectoscope model IMT-YF/Olympus). […]
# [4] = cited from earlier work
# [5] = tested on: Leishmania major lesions; test: In vivo testing in BALB/c mice, Leishmania footpad lesion; conditions: for Lesion Size (mm) Post-Rx: daily for one week, 9 days after commencement; for Lesion Size (mm) Pre-Rx: prior to dosing
# Experimental: One foot pad was infected with infective Leishmania promastigotes while the other foot served as control. After the infected foot pads had developed lesions, mice with similar size lesions were selected and treated daily with test article for one week. The first doses were administered on 18 May. Lesions were measured with calipers prior to dosing and 9 days after commencement of treatment (27 May) and the difference in lesion size calculated. The thickness of the uninfected footpad was also measured. […] Test articles were administered orally and intra-peritoneally (ip).
# [6] = tested on: Leishmania major ATCC 50122 amastigotes; test: In vitro amastigote/macrophage culture drug screening; type: cell-based; conditions: added once
compound,measurement,setting,value
"C[C@@H]1CC[C@H]2[C@@H](C)C(=O)O[C@@H]3O[C@@]4(C)CC[C@@H]1[C@]32OO4 [Artemisinin, (+)-artemisinin]",killing of / potency against Leishmania parasites within mouse macrophages in vitro,[1],results were duplicated
same,effectiveness ranking of the compounds in the screen,[1],Artelinic acid>>>Dihydroartemisinin>Beta Arteether>>Artemisinin
same,parasites per macrophage,"[1]; 2.0 μM, compound added q4 h × 1",between 4-7
same,cytotoxic level in vitro,[2],17.3%
same,inhibition at 1 µg/mL,[3],≥ 80%
"CCO[C@H]1O[C@@H]2O[C@@]3(C)CC[C@H]4[C@H](C)CC[C@@H]([C@H]1C)[C@@]24OO3 [Beta Arteether, Beta-Arteether]",effectiveness ranking of the compounds in the screen,[1],Artelinic acid>>>Dihydroartemisinin>Beta Arteether>>Artemisinin
Cc1ccc(C(=O)Nc2ccc(S(=O)(=O)O)c3cc(S(=O)(=O)O)cc(S(=O)(=O)O)c23)cc1NC(=O)c1cccc(NC(=O)Nc2cccc(C(=O)Nc3cc(C(=O)Nc4ccc(S(=O)(=O)O)c5cc(S(=O)(=O)O)cc(S(=O)(=O)O)c45)ccc3C)c2)c1 [Suramin],oral bioavailability,[4],no oral bioavailability
O.O.O.O.O.O.O.O.O.O=C([O-])[C@@H]1[O][Sb](=[O])([O][Sb]2(=[O])[O][C@H]([C@H](O)CO)[C@H](O)[C@H](C(=O)[O-])[O]2)[O][C@H]([C@H](O)CO)[C@@H]1O.[Na+].[Na+].[Na+] (stereo partly drawn) [Pentostam],Lesion Size (mm) Post-Rx,"[5]; 20 mg/Kg, IP",2.3 mm and 3.0 mm and 2.7 mm
same,Lesion Size (mm) Pre-Rx,"[5]; 20 mg/Kg, IP",2.8 mm and 2.6 mm
same,Lesion Size (mm) Post-Rx,"[5]; 20 mg/Kg, Oral",2.6 mm and 2.9 mm
same,Lesion Size (mm) Pre-Rx,"[5]; 20 mg/Kg, Oral",2.8 mm and 2.7 mm
Nc1nc(N)nc(Nc2ccc([As]3SCC(CO)S3)cc2)n1 (stereo not drawn) [Melarsoprol],oral bioavailability,[4]; po,no oral bioavailability
"C[C@H]1[C@@H](OCc2ccc(C(=O)O)cc2)O[C@@H]2O[C@@]3(C)CC[C@H]4[C@H](C)CC[C@@H]1[C@@]24OO3 [Artelinic acid, artelinic acid]",observation on Leishmania amastigotes,[6]; 0.25 μM,Cleared all the Leishmania amastigotes
same,observation on Leishmania amastigotes,[6]; 0.5 μM,Cleared all the parasites in the cytoplasm
same,observation on Leishmania amastigotes,[6]; 1.0 μM,All the amastigotes were cleared from the macrophages
same,Lesion Size (mm) Post-Rx,"[5]; 4 ul/Kg, IP",2.1 mm and 2.2 mm and 2.0 mm
same,Lesion Size (mm) Pre-Rx,"[5]; 4 ul/Kg, IP",2.6 mm and 2.5 mm
same,Lesion Size (mm) Pre-Rx,"[5]; 4 ul/Kg, Oral",2.7 mm and 2.8 mm
same,"effectiveness compared with Pentostam, the positive control",[5]; at the doses and route of administration tested,much more effective than Pentostam
same,effect on size of Leishmania major footpad lesions,[5]; given orally or ip for one week,decrease in the size of Leishmania major lesions
same,killing of / potency against Leishmania parasites within mouse macrophages in vitro,[1],marked potency
same,effectiveness ranking of the compounds in the screen,[1],Artelinic acid>>>Dihydroartemisinin>Beta Arteether>>Artemisinin
same,observation on Leishmania amastigotes,"[1]; 2.0 μM, added once",All the leishmania amastigotes were cleared
same,clearance of amastigotes in macrophages,"[1]; 2 uM, initial screen",cleared all of the amastigates in macrophages
same,lowest concentration at which killing of intracellular amastigotes was noted,"[1]; dose response, added once",0.1 µM
same,lowest dose at which clearance was complete,"[1]; dose response, added once",0.25 µM
N=C(N)c1ccc(OCCCCCOc2ccc(C(=N)N)cc2)cc1 [Pentamidine],oral bioavailability,[4],no oral bioavailability
